Experimental data reported in PMC7334220, “Diamond Blackfan anemia is mediated by hyperactive Nemo-like kinase” (Nature Communications, 2020).
Where two headings read alike, the source gives them in different places.

Columns and labels:
[1] = test system: RPS19-insufficient Lin-Kit+ progenitors from mouse embryonic (E14.5–E15.5) fetal livers; assay: c-Kit+ erythroid expansion rescue in murine RPS19-insufficient progenitors (Cell titer-Glo); type: cell-based; conditions: for rescue of c-Kit+ erythroid expansion: 10 µM, murine RPS19-insufficient model, Fig. 1b; for EC50: Mus musculus, read-out: EC50 of improved erythroid growth
Method: Cells were plated at 2000 cell per well in 96-well plates in the presence or absence of doxycycline. Relative amounts of live cells were quantified by luciferase-based Cell titer-Glo® assay. b TGFβR1 inhibitors were assessed for their ability to increase cell expansion in RPS19-insuffiency. As a control, vehicle alone (no doxycycline) is represented at the far left while all other samples were treated with doxycycline to induce RPS19-insufficiency. c Kit^+ erythroid progenitors were grown in the absence of doxycycline and in the presence of 10 µM of indicated compound. In addition, cells were treated with 5 ng/ml of TGFβ1 for 5 days before being subjected to Cell titer-Glo® assay. d Differentiating cord blood CD34^+ progenitors were transduced with shRNA against luciferase or RPS19 and treated with inhibitors at working concentrations for TGFβ inhibition every three days. […] Cells were counted and CD235^+ erythroid (i and iii) and CD11b^+ myeloid cell (ii and iv) percentages were determined by flow cytometry. The number of erythroid or myeloid cells is expressed as a percentage of the number of that lineage with no cytokine or drug treatment. Bars represent means ± SD with individual data points overlaid. n = 3 independent experiments performed in triplicate. Statistics: two-tailed Student’s t test, significant *p < 0.05. Also see Supplementary Fig. 1. Erythroid expansion is depicted in red while myeloid is in purple. Source data are provided as a Source Data file.
(1 picture or pasted object on this page, not shown here)

NLK = target: T1, NLK (Homo sapiens, UniProt Q9UBE8); assay: NLK in vitro kinase assay (NLK, c-Myb, Raptor substrates); type: biochemical; conditions: for inhibition of NLK-mediated phosphorylation of NLK substrates NLK, c-Myb and Raptor: added to activated NLK in vitro, Supplementary Fig. 1c
T1 construct: NLK, p38, or ALK5 for in vitro kinase assays were immunopurified from Kp53A1 cells; endogenous in cells; immunoprecipitated with anti-NLK (Abcam AB97642)
T1 sequence (Q9UBE8 1-527): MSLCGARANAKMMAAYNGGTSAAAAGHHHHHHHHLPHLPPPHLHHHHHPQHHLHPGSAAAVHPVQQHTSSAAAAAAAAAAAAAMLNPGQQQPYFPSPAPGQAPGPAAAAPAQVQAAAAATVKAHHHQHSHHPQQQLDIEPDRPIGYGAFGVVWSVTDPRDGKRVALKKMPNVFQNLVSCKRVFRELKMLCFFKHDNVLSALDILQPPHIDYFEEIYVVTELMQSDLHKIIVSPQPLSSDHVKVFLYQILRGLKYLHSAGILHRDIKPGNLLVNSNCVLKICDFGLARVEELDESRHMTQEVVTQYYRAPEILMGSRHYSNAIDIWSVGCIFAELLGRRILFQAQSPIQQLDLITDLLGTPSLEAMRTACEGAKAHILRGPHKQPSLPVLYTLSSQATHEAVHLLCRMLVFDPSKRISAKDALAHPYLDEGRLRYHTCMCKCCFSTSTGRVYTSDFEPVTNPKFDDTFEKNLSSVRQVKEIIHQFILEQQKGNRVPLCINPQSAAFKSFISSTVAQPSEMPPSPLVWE
Method: Equivalent protein was loaded between samples. b—blue Transduced progenitors were differentiated for 15 days and sorted for surface expression of CD235 + , CD41 + and CD11b + population NLK mRNA was assessed by qRT-PCR. c Control and shRPS19-transduced CB progenitors were differentiated for 10 days prior to separation into CD71^+ and CD71^- populations and assessed for pThr298-NLK phosphorylation by Western blot analysis. d—purple CB CD34 + progenitors were transduced with shRNA against luciferase (shLuc) or RPS19 (shRPS19) along with CFP-NLK and YFP-NLK and differentiated for 10 days. NLK dimerization was quantified by FRET. e—left panel NLK was immunoprecipitated from transduced differentiating CD71^+ and CD71^- populations after 10 days, and incubated in the presence of ATP, Mg^2+ and dephosphorylated NLK (i orange), c-Myb (ii—blue) and Raptor (iii—green) for 30 min at 37 °C. Phosphorylation was detected by a combination of anti^-phosphoserine-HRP and anti-phosphothreonine-HRP antibodies, or mouse anti-phosphoserine and anti-mouse-HRP antibodies. e—right panel For comparison, NLK in vitro kinase activity was assessed from CD235^+, CD41^+ and CD11b^+ populations enriched after identical treatments. f A panel of eight small molecule p38 inhibitors were titrated into in vitro kinase assays in the presence of activated NLK or p38 from stimulated Kp53A1 cells. The IC50 for NLK and p38 for each compound was calculated. The data are represented diagrammatically with IC50 values represented as vertical lines along a concentration gradient for NLK and p38. Kinase activity is represented as blue and the extent of inhibition is depicted in white. […] Bars represent means ± SD with individual data points overlaid. n = 3 independent experiments performed in triplicate.Statistics: two-tailed Student’s t test, significant *p < 0.05. Also see Supplementary Figs. 3 and 4. Source data are provided as a Source Data file. […] Inhibitors were added to cells at indicated concentrations with a final DMSO concentration of 0.5%. […] IC50 calculations were obtained using 8–9 concentrations of compound and generated using the IC50 Calculator software by AAT Bioquest®. NLK, p38, or ALK5 for in vitro kinase assays were immunopurified from Kp53A1 cells. NLK activation was induced by incubating cells at 32° for 24-48 h, p38 by stimulating with IL-3, IL-6, SCF, and Epo at the same concentrations used for differentiating erythroid progenitors.
For NLK kinase analysis, cultures were treated as indicated and lysed for 30 min at 4 °C in 750 μl of kinase lysis buffer (50 mM Tris [pH 7.4], 5 mM EDTA, 250 mM NaCl, 0.1% Triton X-100, 50 mM NaF, 0.1 trypsin inhibitor unit of aprotinin per ml, 50 μg of phenylmethylsulfonyl fluoride per ml, 100 μM sodium vanadate, 1 μg of leupeptin per ml). For TGFβR1 kinase analysis, cells were lysed in membrane kinase buffer (10 mM Tris-HCl (pH8.0), 140 mM NaCl, 300 mM KCl, 0.5% Triton X-100, and 0.5% sodium deoxycholate with complete protease inhibitor cocktail (Roche)). Extracts were clarified, and equivalent protein was incubated overnight at 4 °C with antibody (NLK: #AB97642; Abcam, TGFβR1: V22; Santa Cruz Biotechnology). Immune complexes were collected with Catch and Release® V2.0 Reversible Immunoprecipitation System and diluted in kinase buffer (25 mM Tris [pH 7.4], 10 mM MgCl2, 1 mM dithiothreitol). When cell numbers were limiting, NLK activity was amplified by adding 0.5 µg dephosphorylated NLK prior to performing kinase reaction. 50 μl of kinase buffer containing NLK or TGFβR1 sample and 5 μM ATP was incubated in the presence of biotinylated substrate (NLK, c-Myb, or Raptor for NLK and Smad2 or Smad3 for TGFβR1) immobilized on streptavidin-coated 96-well plates.

p38 = conditions: reported, no reference given; read-out: reported IC50 against p38; cited from earlier work

IC50 (NLK; Supplementary Fig. 1e, read-out: IC50 against NLK) [nM]	Compound	rescue of c-Kit+ erythroid expansion [1]	EC50 [1] [nM]	IC50 (NLK) [nM]	inhibition of NLK-mediated phosphorylation of NLK substrates NLK, c-Myb and Raptor (NLK)	SD208 concentration at which NLK activation was significantly inhibited in in vitro assays (NLK; rebuttal letter)	IC50 (p38) [nM]	EC50 ([1]; murine RPS19-insufficient cells, Supplementary Fig. 1a) [nM]
–	Fc1ccc(Cl)cc1-c1nc(Nc2ccncc2)c2nccnc2n1 [SD208]	significantly rescued	700	435	~ 80%	below 0.1 uM	850	–
1070	NC(=O)c1ccc(-c2nc(-c3ccc4c(c3)OCO4)c(-c3ccccn3)[nH]2)cc1 [SB431542]	significantly rescued	–	–	55%	–	9000	5000
